We go through four compounds from article PMC3020970, “K70Q Adds High-Level Tenofovir Resistance to “Q151M Complex” HIV Reverse Transcriptase through the Enhanced Discrimination Mechanism” (PLoS ONE, 2011).

In assay [1] the test system is HIV-1 NL4-3 strain (WT). As to the kind of experiment: microbe, parasite or virus in culture. It counts as cell-based. The protocol: (§1) Susceptibilities to various RT inhibitors were determined using the MAGIC-5 cells which are HeLa cells stably transfected with a β-galactosidase gene under the control of an HIV long terminal repeat promoter, and with vectors that express the CD4 receptor and the CCR5 co-receptor under the control of the CMV promoter as described previously. Briefly, MAGIC-5 cells were infected with diluted virus stock (100 blue forming units) in the presence of increasing concentrations of RT inhibitors, cultured for 48 h, fixed, and stained with X-Gal (5-bromo-4-chloro-3-indolyl-β-D-galacto-pyranoside). The stained cells were counted under a light microscope.

The subject of assay [2] is HIV-1 clinical isolate 1 (Q151Mc-containing). As to the kind of experiment: Single-cycle drug susceptibility assay (MAGIC-5 cells), clinical isolate 1. Type of assay: cell-based. The settings on record: Human immunodeficiency virus 1; clinical isolate 1, MAGIC-5 cells. The protocol:
(§2) HIV was isolated from fresh plasma immediately after collection of clinical samples from study participants at the outpatient clinic of the AIDS Clinical Center (ACC), International Medical Center of Japan. The Institutional Review Board approved this study (IMCJ-H13-80) and a written consent was obtained from all participants.
as §1

In assay [3] the test system is HIV-1 clinical isolate 2 (Q151Mc + K70Q). As to the kind of experiment: Single-cycle drug susceptibility assay (MAGIC-5 cells), clinical isolate 2. As to conditions: Human immunodeficiency virus 1; clinical isolate 2, MAGIC-5 cells. It counts as cell-based. As to the method:
as §2, §1

Assay [4] has as its system HIV-1 WT. Description: Single-cycle drug susceptibility assay (MAGIC-5 cells), recombinant WT clone. Type of assay: cell-based. The settings on record: Human immunodeficiency virus 1, Table S2. The protocol:
(§3) The NL4-3-based molecular clone was constructed by replacing the pol-coding region with the HIV-1 BH10 strain. […] Each molecular clone was transfected into COS-7 cells. Cells were grown for 48 h, and culture supernatants were harvested and stored at −80°C until use.
as §1

In assay [5] the test system is HIV-1 K70E. Description: Single-cycle drug susceptibility assay (MAGIC-5 cells). Type of assay: cell-based. The protocol: as §3, §1
For assay [6], the system named is HIV-1 K70G. Described as above. It counts as cell-based. The protocol:
as §3, §1

The test system of assay [7] is HIV-1 K70N. Described as above. Type of assay: cell-based. As to the method:
as §3, §1

Assay [8] concerns HIV-1 K70Q. The assay is described as above. It counts as cell-based. The settings on record: Human immunodeficiency virus 1, MAGIC-5; K70Q. The protocol: as §3, §1
Assay [9] relates to HIV-1 K70R. The description is as above. Type of assay: cell-based. The protocol:
as §3, §1

In assay [10] the test system is HIV-1 K70T. Described as above. It counts as cell-based. As to the method:
as §3, §1

Assay [11] relates to HIV-1 Q151Mc/K70E. The description is as above. It counts as cell-based. The protocol: as §3, §1
Assay [12] deals with HIV-1 Q151Mc/K70G. Described as above. It counts as cell-based. The protocol:
as §3, §1

The test system of assay [13] is HIV-1 Q151Mc/K70N. Described as above. It counts as cell-based. The protocol:
as §3, §1

Assay [14] has as its system HIV-1 Q151Mc/K70Q. The assay is described as above. Type of assay: cell-based. The protocol: as §3, §1
Assay [15] relates to HIV-1 Q151Mc/K70R. The description is as above. Type of assay: cell-based. The protocol:
as §3, §1

Assay [16] deals with HIV-1 Q151Mc/K70T. The description is as above. Type of assay: cell-based. As to the method:
as §3, §1

Assay [17] concerns HIV-1 Q151Mc. The description is as above. Type of assay: cell-based. As to conditions: Human immunodeficiency virus 1, MAGIC-5. The protocol: as §3, §1
The target in assay [18] is T1, HIV-1 RT K70Q (Human immunodeficiency virus type 1 group M subtype B, UniProt P03366, K669Q).
T1 construct: made in house; host or cells: Escherichia coli BL21
Description: Pre-steady state kinetics of binding and incorporation. It counts as biochemical. As to conditions: K70Q RT. As to the method:
(§4) The reactions were quenched at various times (10 ms to 5 s) by adding EDTA to a final concentration of 50 mM. The amounts of product (P18-dAMP) were quantitated and fit to the following burst equation: [drawing 1] (1) where A is the amplitude of the burst phase that represents the RT-DNA complex at the start of the reaction, k obs is the observed burst rate constant for dNTP incorporation, k ss is the steady state rate constant, and t is the reaction time. The rate constant of the linear phase (kcat) can be estimated by dividing the slope of the linear phase by the enzyme concentration. The active site concentration and template/primer binding affinity (KD-DNA) were determined by plotting the amplitude (A) against the concentration of template/primer. The data were fit using non-linear regression to a quadratic equation: [drawing 2] (2) where KD is the dissociation constant for the RT-DNA complex, and [RT] is the concentration of active polymerase molecules. Subsequent biochemical experiments were performed using corrected active site concentrations, [43].
(§5) HIV-1 RT (50 nM active sites) was pre-incubated with 50 nM T31/P18 in one syringe (Syringe A), whereas varying concentrations of dNTP and 10 mM MgCl2 were kept in another syringe (Syringe B). The solutions were rapidly mixed to initiate reactions, which were subsequently quenched at various times (5 ms to 10 s) by adding EDTA to a final concentration of 50 mM. The products from each quenched reaction were resolved, quantitated, and plotted as described above. The data were fit by non-linear regression to the burst equation (Eq 1).
(§6) To obtain the dissociation constant KD-dNTP for dNTP binding to the RT-DNA complex, the observed burst rates (kobs) were fit to the hyperbolic equation (Eq. 3) using nonlinear regression: [drawing 3] (3) where kpol is the optimal rate of dNTP incorporation.

Assay [19] concerns the target T2, HIV-1 RT K70Q/Q151Mc (Human immunodeficiency virus type 1 group M subtype B, UniProt P03366, A661V/F676L/F715Y/K669Q/Q750M/V674I).
T2 construct: made in house; host or cells: Escherichia coli BL21
The description is as above. The settings on record: K70Q/Q151Mc RT. It counts as biochemical. The protocol:
as §4, with “Determination of active site concentrations in the different preparations of WT and mutant RTs were performed using pre-steady state burst experiments. […] The reactions” for “The reactions”
as §5, §6
(§7) The kinetics of TFV incorporation by the WT and mutant enzymes were carried out in a manner similar to that employed for natural dNTP substrate except the time of reactions. It was noted that the mutant enzymes required longer time to incorporate TFV compared to the WT HIV-1 RT (detailed in the Results section).

The target of assay [20] is T3, HIV-1 RT Q151Mc (Human immunodeficiency virus type 1 group M subtype B, UniProt P03366, A661V/F676L/F715Y/Q750M/V674I).
T3 construct: made in house; host or cells: Escherichia coli BL21
The assay is described as above. Type of assay: biochemical. As to the method:
as §4, with “Determination of active site concentrations in the different preparations of WT and mutant RTs were performed using pre-steady state burst experiments. […] The reactions” for “The reactions”
as §5, §6, §7

Assay [21] addresses T4, HIV-1 RT WT (Human immunodeficiency virus type 1 group M subtype B, UniProt P03366).
T4 construct: made in house; host or cells: Escherichia coli BL21
The assay is described as above. It counts as biochemical. As to the method: as §4, with “Determination of active site concentrations in the different preparations of WT and mutant RTs were performed using pre-steady state burst experiments. […] The reactions” for “The reactions”
as §5, §6, §7

Where [22] appears, read: Human immunodeficiency virus 1, NL43, WT, MAGIC-5 cells, Table S1, read-out: EC50.

The structures appear in SMILES notation. Where “and” joins values, the source holds several entries; their conditions need not be identical. Identical values can stand only once. Counter-ions that a name gives are not always drawn. Like-named read-outs stand apart in the source and are kept apart here. Bounds are passed on as bounds.

The term EC50 denotes the midpoint of the concentration-response curve. The term Kd denotes the concentration at which binding is half-saturated. A higher Kd goes with weaker binding.

`Nc1nc(=O)n([C@@H]2CS[C@H](CO)O2)cc1F` [FTC, emtricitabine]: the EC50 in assay [1] (Human immunodeficiency virus 1, NL43, MAGIC-5) was 400 ± 30 nM; in assay [2] it was 3500 ± 120 nM; in assay [3], 2100 ± 170 nM.

`Cc1ccnc2c1NC(=O)c1cccnc1N2C1CC1` [NVP, nevirapine]: the half-maximal effective concentration (EC50) was 50 ± 4 nM in assay [1] (setting [22]), over 10000 nM in assay [2] and over 10000 nM in assay [3].

For `CC(C)OC(=O)OCOP(=O)(CO[C@H](C)Cn1cnc2c(N)ncnc21)OCOC(=O)OC(C)C` [TFV-DF, tenofovir disoproxil fumarate], the concentration giving a half-maximal response (EC50) in [1] (setting [22]) amounted to 20 ± 3 nM; in assay [2] it was 40 ± 10 nM; in assay [3], 120 ± 20 nM; in assay [4], 20 ± 4 nM; in [5] (Human immunodeficiency virus 1, MAGIC-5, K70E) it was 20 ± 3 nM; in [6] (Human immunodeficiency virus 1, MAGIC-5, K70G), 20 ± 3 nM. Besides, the concentration giving a half-maximal response (EC50) in assay [7] (Human immunodeficiency virus 1, MAGIC-5, K70N) stood at 20 ± 3 nM; in assay [8] it was 30 ± 3 nM; in [9] (Human immunodeficiency virus 1, MAGIC-5, K70R), 20 ± 2 nM; in [10] (Human immunodeficiency virus 1, MAGIC-5, K70T) it was 20 ± 3 nM; in [11] (Human immunodeficiency virus 1, MAGIC-5, Q151Mc/K70E), 30 ± 1 nM; in assay [12] (Human immunodeficiency virus 1, MAGIC-5, Q151Mc/K70G), 40 ± 2 nM. Moreover, the half-maximal effective concentration (EC50) in assay [13] (Human immunodeficiency virus 1, MAGIC-5, Q151Mc/K70N) amounted to 60 ± 4 nM; in assay [14] (Human immunodeficiency virus 1, MAGIC-5, Q151Mc/K70Q) it was 200 ± 10 nM; in assay [15] (Human immunodeficiency virus 1, MAGIC-5, Q151Mc/K70R), 30 ± 2 nM; in assay [16] (Human immunodeficiency virus 1, MAGIC-5, Q151Mc/K70T), 50 ± 1 nM; in [17], 40 ± 3 nM. For the same compound, the “Fold increase in EC50 compared to HIV-1 WT” value in [5] (K70E vs WT), in assay [6] (K70G vs WT), in [7] (K70N vs WT), in [9] (K70R vs WT) and in assay [10] (K70T vs WT) was “(1) fold” in each case. The “Fold increase in EC50 compared to HIV-1 Q151Mc” value was “(0.8) fold” in [11] (Q151Mc/K70E vs Q151Mc); “(1) fold” in assay [12] (Q151Mc/K70G vs Q151Mc); “(1.5) fold” in assay [13] (Q151Mc/K70N vs Q151Mc); “(0.8) fold” in assay [15] (Q151Mc/K70R vs Q151Mc); “(1.3) fold” in assay [16] (Q151Mc/K70T vs Q151Mc). The “Resistance (fold less susceptible than WT HIV-1)” value in [14] (K70Q/Q151Mc vs WT HIV-1) was determined as 10 fold.

Regarding `Nc1ncnc2c1ncn2[C@H]1C[C@H](O)[C@@H](COP(=O)(O)OP(=O)(O)OP(=O)(O)O)O1` [dATP], the k pol in assay [18] (T31/P18, 37°C) is 8.4 ± 0.4 s⁻¹; in [19] (T31/P18, 37°C) it was 14.6 s⁻¹ and 14.6 ± 1.6 s⁻¹; in assay [20] (T31/P18, 37°C) it was 17.9 s⁻¹ and 17.9 ± 0.4 s⁻¹; in assay [21] (T31/P18, 37°C), 6.3 s⁻¹ and 6.3 ± 0.5 s⁻¹. The dissociation constant (Kd) in assay [18] (binding to RT-DNA complex) was found to be 3800 ± 600 nM; in assay [19] (binding to RT-DNA complex) it was 5000 ± 70 nM; in assay [20] (binding to RT-DNA complex), 5400 ± 500 nM; in [21] (binding to RT-DNA complex) it was 2600 ± 100 nM. In addition, the “k pol/Kd” value in assay [19] was 2.9e+06 M⁻¹ s⁻¹ and 2.9e+06 ± 300000 M⁻¹ s⁻¹; in assay [20], 3.3e+06 M⁻¹ s⁻¹ and 3.3e+06 ± 300000 M⁻¹ s⁻¹; in [21], 2.4e+06 M⁻¹ s⁻¹ and 2.4e+06 ± 200000 M⁻¹ s⁻¹.
